According to patent US12673972B2, “Lung-specific targeting-peptide (LTP), compositions, and uses thereof” (University of Pittsburgh—Of the Commonwealth System of …, priority 2019, dated 2026):
Entries after “also recorded” stand apart in the source; their conditions may differ. No end group written: not given here. Cy5.5 = Cy5.5 fluorescent label

Experiments:
CD1 mice = test: In vivo biodistribution of fluorescently labeled peptides in mice (IVIS ex vivo organ imaging, confocal microscopy); settings: for cardiac uptake / uptake in lung epithelial tissue: 10 mg/kg intravenously, 15 minutes circulation, CD1 mice; for uptake in lung epithelial tissue: confocal and IVIS; for greater lung than liver uptake (lung-to-liver ratio of fluorescent intensity) / lung transduction at lower doses: S7A 5 mg/kg, R11A 5 and 1 mg/kg, 15 minutes, ex vivo IVIS; for lung transduction at lower doses: even at the lowest injected dose
Experimental: CTP-B, CTP-P2A, CTP-S7A, CTP-R11A and a random negative control peptide (RAN), were further tested in vivo in mice, in triplicate. Wild-type, 6-week old, male and female CD1 mice were weighed and anesthetized. Mice were injected intravenously with the various peptides, each at a dose of 10 mg/kg. Peptides circulated for 15 minutes, after which mice were euthanized and fixed with 3 ml of 10% formalin injected through the left ventricular apex. Multiple organs (heart, lungs, liver, kidney, spleen, brain, large intestines, small intestines, testes/ovaries, and eyeball) were harvested, placed in a 12-well plate, and immediately imaged using a Perkin-Elmer IVIS imaging system using the relevant excitation-emission laser/detector wavelengths. After the imaging was complete, organs were placed in 10% formalin at room temperature. Following overnight fixation in formalin, organs were transferred to 30% sucrose at 4° C. Following overnight incubation in sucrose, all organs were embedded and frozen in optical cutting medium, 10 μm thick sections were cut, mounted with DAPI, and cover-slipped. Slides were imaged using confocal fluorescent microscopy using the same parameters for imaging between mice, peptides and organs, to allow for comparison and quantification of fluorescence intensities in the relevant regions of interest.
Injections were repeated in a total of 9 CD1 mice with identical lung uptake; all images were acquired with the same confocal microscope parameters to allow for cross-animal comparison; however, at the same laser intensity, the lung sample was saturated. […] Wild-type mice were injected with Cy5.5 labeled R11A at a dose of 10 mg/kg, and euthanized mice after 15 minutes; multiple organs were then harvested for imaging.
Wild-type CD1 mice were then injected with lower doses of fluorescently labeled S7A peptide (5 mg/kg) or R11A peptide (5 and 1 mg/kg). The peptides were allowed to circulate for 15 minutes, mice were sacrificed, multiple organs were harvested, and ex vivo IVIS imaging was performed. Ex vivo imaging of organs harvested from mice without injected peptides was performed in order to subtract background auto-fluorescent signal from the test organs. IVIS imaging of multiple organs was conducted after administering decreasing doses of peptide from 5 to 1 mg/kg. […] Quantification of IVIS imaging for total fluorescent intensity for heart, lung, liver, kidney, spleen, and brain is shown in FIG. 4. Using the fluorescent intensity values, Lung-to-Liver ratios for both peptides were calculated at the tested doses.

H9C2 cells [1] = test: FACS uptake of Cy5.5-labeled alanine-scan peptides in H9C2 cells; assay type: cell-based, rat; settings: 10 μM peptide, 30 minutes at 37° C., FACS gated on live cells
Experimental: An alanine scan of the cardiac targeting peptide (CTP, APWHLSSQYSRT, SEQ ID NO: 3) was performed, in which each amino acid was replaced sequentially with alanine, resulting in 11 different “alanine mutant” versions of CTP. Solid phase peptide synthesis of the alanine mutants of CTP fluorescently labeled with Cyanine 5.5 (Cy5.5) was conducted using standard fluorenylmethoxycarbonyl protecting group organic synthesis (FMOC) conditions on a Liberty CEM Microwave Peptide Synthesizer. Cleavage of the fully-protected CTP peptide fragment from the 2-chlorotrityl solid support was accomplished using 1% Trifluoroacetic acid (TFA)/methylene chloride (DCM), followed by elution of the peptide using TFA+scavengers, followed by isolation of the crude product by precipitation in Diethyl Ether (EtO2). Fluorescent dye labelling of the N-terminal amine was performed in solution using Cy5.5-NHS (Lumiprobe, Inc). The resulting crude cyclic CTP-Cy5.5 peptide was purified by preparative C-5 Reversed Phase High Performance Liquid Chromatography (RP-HPLC) on a Waters Delta Prep 4000 chromatography system, using standard Acetonitrile/0.1% TFA gradient conditions. Analytical C-5 RP-HPLC characterization on a Waters Alliance chromatography system followed by Matrix-Assisted Laser Desorption/Ionization Time-Of-Flight Mass Spectrometry (MALDI-TOF-MS) analysis on an Applied Biosystems Voyager workstation was used to confirm the expected mass and purity of the final product. For the purposes of nomenclature, the CTP mutants are identified by the original amino acid followed by its numbered position and A to indicate alanine at the substituted position, e.g., R11A indicates arginine at position 11 of CTP substituted with alanine (APWHLSSQYSAT, SEQ ID NO: 2). CTP was also synthesized as a 6-amino acid N-terminal peptide (CTP-A, APWHLS, SEQ ID NO: 4), and as a 6-amino acid C-terminal peptide (CTP-B, SQYSRT, SEQ ID NO: 5).
For in vitro testing, a rat cardiomyoblast cell line, H9C2 was incubated with each of the alanine-scan peptides, including parental peptide CTP and variants CTP-A and CTP-B; each condition was run in triplicate. For the incubation, peptides were received as lyophilized powders and made into 10 mM stock solutions in DMSO. The stock solution was diluted in culture medium to a final concentration of 10 μM for each peptide, and incubated for 30 minutes at 37° C. with H9C2 cells. Following the incubation period, cells were washed extensively with PBS, trypsinized and fluorescence activated cell sorting (FACS) was performed in biological triplicates. […] There was almost a 3-4 fold increase in median fluorescence intensities compared with CTP for S7A peptide and R11A peptide (FIG. 1).

[2] = test system: human bronchial epithelial cells from patients with Cystic Fibrosis (CF); test: Confocal uptake in human bronchial epithelial cells from patients with Cystic Fibrosis; assay type: cell-based; settings: for uptake by confocal microscopy: 10 μM, 0, 2, 10 or 30 minutes at 37° C./5% CO2, FIG. 6A; for quantification of fluorescence intensity (uptake): FIG. 6B
Experimental: Cells were grown on coverslips, incubated with 10 μM of S7A peptide, R11A peptide, or a random, negative control peptide, for 0, 2, 10, or 30 minutes at 37° C./5% CO2. Following incubation, cells were washed with prewarmed PBS, cross-stained with DAPI, fixed, and mounted on slides for confocal microscopy. […] In the time 0 and 2 minute timepoints, only the DAPI nuclear stain is visible, with cytoplasmic staining for the LTPs growing visible at 10 minutes and dominating the field of view at 30 minutes.

[3] = test system: human bronchial epithelial cells from patients with CF; test: Uptake at 4° C with fluorescently labeled transferrin (Tf-488) in human bronchial epithelial cells from patients with CF; assay type: cell-based; settings: for uptake relative to random peptide: 10 μM, 1 hour on ice at 4° C. then 37° C., times 0, 5 and 30 minutes; for energy dependence of internalization: occurred even at 4° C.
Experimental: To further characterize uptake of S7A peptide and R11A peptide in cells of interest, human bronchial epithelial cells from patients with CF were grown on cover-slips. Cells were starved at 37° C. for 1 hour in minimal media (MEM media+0.5% Bovine Serum Albumin (BS)+25 mM Hepes buffer at pH 7.4), washed with cold PBS, incubated on ice at 4° C. with fluorescently labeled transferrin (Tf-488) and 10 μM of test peptide (Random, S7A peptide, or R11A peptide) for 1 hour before being shifted to a 37° C. water-bath. Cover-slips were fixed at times 0, 5 and 30 minutes, with random peptide samples fixed only at 0 and 30 minutes.

H9C2 cells [4] = test: Confocal microscopy of H9C2 cells transduced with linear or cyclic CTP; assay type: cell-based, rat; settings: for Mean (fluorescence) / Subtraction (mean minus background fluorescence): transduced H9C2 cells, confocal quantification
Text: The cardiac targeting peptide (CTP, SEQ ID NO: 3) was cyclized by establishing a chemical bond between the amino and carboxyl termini (between the alpha-amino group of N-terminal Lysine and the C-terminus of the peptide sequence), and subsequently labelled with a Cy5.5 fluorescent label at the epsilon amino group of the N-terminal lysine.
The cyclic form of CTP was then compared to the linear form of CTP using confocal microscopy of transduced H9C2 cells, using the protocol as described in Example 1 above. […] Quantification of the fluorescence intensity, as shown in FIG. 10B and Table 2, confirmed the enhanced fluorescent activity.

Substance | cardiac uptake (CD1 mice) | uptake of the fluorescently labeled peptide into H9C2 cells as compared to full-length, parental CTP (H9C2 cells [1]) | uptake by confocal microscopy [2] | quantification of fluorescence intensity (uptake) ([2]; 10 μM) | uptake and fluorescence intensity compared between test peptides ([2]; 10 μM, confocal microscopy, FIG. 6A) | uptake in lung epithelial tissue (CD1 mice) | greater lung than liver uptake (lung-to-liver ratio of fluorescent intensity) (CD1 mice) | lung transduction at lower doses (CD1 mice) | uptake relative to random peptide [3] | energy dependence of internalization [3] | Mean (fluorescence) (H9C2 cells [4]) | Subtraction (mean minus background fluorescence) (H9C2 cells [4]) | uptake of cyclic format relative to linear format (H9C2 cells [4]; confocal imaging, FIG. 10A)
AAWHLSSQYSRT [CTP-P2A] | results similar to what was predicted from in vitro H9C2 transduction | statistically significantly higher uptake | – | – | – | – | – | – | – | – | – | – | –
APWHLSAQYSRT (also: Cy5.5 label, place not given here) [S7A, Lung-specific targeting peptide, alanine mutant of CTP; tested Cy5.5-labeled] | did not show significant cardiac uptake; also recorded: without significant cardiac uptake | statistically significantly higher uptake | robust uptake | significantly high uptake | higher uptake and fluorescence intensity even than R11A peptide | robust uptake | approximately 2.5 fold | Robust lung transduction | robust uptake | not energy-dependent | – | – | –
APWHLSSQYSAT (also: Cy5.5 label, place not given here) [R11A, Lung-specific targeting peptide, alanine mutant of CTP; tested Cy5.5-labeled] | did not show significant cardiac uptake; also recorded: without significant cardiac uptake | statistically significantly higher uptake | robust uptake | significantly high uptake | – | Robust lung uptake | 8-9 fold | Robust lung transduction | robust uptake | not energy-dependent | – | – | –
APWHLSSQYSRT [Linear CTP, cardiac targeting peptide described in WO2019226785A1, parental peptide, reference compound] | – | – | – | – | – | – | – | – | – | – | 362.478 | 134.777 | –
KAPWHLSSQYSRT (cyclo(K(Cy5.5)APWHLSSQYSRT)) [Cyclic CTP, CTP cyclized via N-terminal lysine alpha-amino group to C-terminus, Cy5.5 at lysine epsilon amino group] | – | – | – | – | – | – | – | – | – | – | 521.590 | 371.123 | enhanced uptake relative to the linear format
SQYSRT [CTP-B, 6-amino acid C-terminal peptide of CTP] | results similar to what was predicted from in vitro H9C2 transduction | statistically significantly higher uptake | – | – | – | – | – | – | – | – | – | – | –
